Experimental data published in US20260152490A1, “METHYLLACTAM RING COMPOUND AND PHARMACEUTICAL USE THEREOF” (Japan Tobacco Inc., priority 2018, published 2026).

Columns and labels:
[1] = test system: Salmonella typhimurium TA98; assay: Ames test (reverse mutation test), TA98; assay type: cell-based; details: TA98 with S9 mix
Text: (§1) Metabolite 1 and Metabolite C were each tested herein.
(§2) Two plates per treatment were used.

[2] = test system: Salmonella typhimurium TA100; assay: Ames test (reverse mutation test), TA100; assay type: cell-based; details: TA100 with S9 mix
Text: as §1, §2

[3] = test system: Salmonella typhimurium (TA98, TA1537, TA100, and TA1535) and Escherichia coli (WP2uvrA); assay: Ames test (reverse mutation test), all tester strains: overall conclusion and precipitation; assay type: cell-based; design: key to Precipitation: * Growth inhibition; †: Precipitation
Text: as §1, §2

[4] = test system: Salmonella typhimurium TA1535; assay: Ames test (reverse mutation test), TA1535; assay type: cell-based; details: TA1535, with S9 mix, 2.0 μg/plate, positive control
Text: as §1, §2

[5] = test system: glucose-loaded SD rats; assay: OGTT (Oral Glucose Tolerance Test), Test Example 3; assay type: in vivo; details: male SD rat, 3 mg/kg orally, glucose load after 16 hours, to 120 minutes, compared to vehicle
Procedure: Vehicle (0.5% methylcellulose solution) or Compound 1, Compound A, or Compound B (3 mg/kg each) suspended in a 0.5% methylcellulose solution was orally administered in 5 mL/kg to an about 4-hour-fasted male SD rat (8-week old, Nihon Charles River K.K., 5 cases for each group).
Statistical analyses were based on Dunnett's multiple group test. The significance level was two-sided 5%.

[6] = test system: glucose-loaded SD rats; assay: OGTT (Oral Glucose Tolerance Test), Test Example 2; assay type: in vivo; details: male SD rat, 1, 3, or 10 mg/kg orally, glucose load after 16 hours, to 120 minutes, compared to vehicle
Procedure: Vehicle (0.5% methylcellulose solution) or Compound 1 (1, 3, or 10 mg/kg) suspended in a 0.5% methylcellulose solution was orally administered in 5 mL/kg to an about 4-hour-fasted male SD rat (8-week old, Nihon Charles River K.K., 6 cases for each group).
Statistical analyses were based on Steel's multiple test. The significance level was two-sided 5%.

[7] = test system: Escherichia coli WP2uvrA; assay: Ames test (reverse mutation test), WP2uvrA; assay type: cell-based; details: without S9 mix, 0.01 μg/plate, positive control
Text: as §1, §2

Q: With `CC(C)(C)Oc1cccc(-c2cc(N)nn2-c2ccccc2)c1` [Metabolite C] as the compound, how does the “potential to induce reverse mutations” value [1] read?
A: The value was “had potential to induce reverse mutations”.

Q: And the “potential to induce reverse mutations” value [2]?
A: Its value is “had potential to induce reverse mutations”.

Q: What about the Precipitation ([3]; with S9 mix, 556 μg/plate, Table 6 (TA1537, TA1535, WP2uvrA)) of the same compound?
A: Its Precipitation is “†”.

Q: And the Precipitation ([3]; with S9 mix, 1667 μg/plate, Table 6 (TA1537, TA1535, WP2uvrA))?
A: Its Precipitation is “†”.

Q: What about the Precipitation ([3]; with S9 mix, 5000 μg/plate, Table 6 (TA1537, TA1535, WP2uvrA)) of the same compound?
A: The Precipitation was “†”.

Q: And the Precipitation ([3]; without S9 mix, 556 μg/plate, Table 7 (all five strains))?
A: Its Precipitation is “†”.

Q: What about the Precipitation ([3]; without S9 mix, 1667 μg/plate, Table 7 (all five strains)) of the same compound?
A: Its Precipitation is “†”.

Q: What about the Precipitation ([3]; without S9 mix, 5000 μg/plate, Table 7 (all five strains)) of the same compound?
A: Its Precipitation is “†”.

Q: For `Nc1ccc2cc3ccccc3cc2c1` [Compound 2AA, 2-Aminoanthracene], which “Number of revertant colonies” value ([4]; Table 2) is on record?
A: The value was 223.

Q: What about the “Number of revertant colonies” value ([4]; Table 6) of the same compound?
A: Its value is 250.

Q: Which “blood glucose level after the glucose load (A AUC, % of Vehicle)” value [5] does the source give for `C[C@H]1C(=O)NC[C@@H]1C(=O)Nc1cc(-c2cc(F)cc(OC(C)(C)C)c2)n(C(F)(F)F)n1` [Compound 1, (3R,4R)—N-(5-(3-(tert-butoxy)-5-fluorophenyl)-1-(trifluoromethyl)-1H-pyrazol-3-yl)-4-methyl-5-oxopyrrolidine-3-carboxamide] here?
A: Its value is “significantly reduced the blood glucose level”.

Q: What about the “blood glucose level after the glucose load (Δ AUC, % of Vehicle)” value [6] of the same compound?
A: Its value is “significantly reduced the blood glucose level”.

Q: `CC(C)(C)Oc1cc(F)cc(-c2cc(N)nn2C(F)(F)F)c1` [Metabolite 1] was tested. Which “potential to induce reverse mutations” value ([3]; any of the bacterial tester strains, presence or absence of S9 mix) did it give?
A: Its value is “did not have potential to induce reverse mutations”.

Q: And the Precipitation ([3]; with S9 mix, 556 μg/plate, Table 1 (TA98, TA100))?
A: The Precipitation was “†”.

Q: What about the Precipitation ([3]; with S9 mix, 1667 μg/plate, Table 1 (TA98, TA100)) of the same compound?
A: The Precipitation was “†”.

Q: What about the Precipitation ([3]; with S9 mix, 5000 μg/plate, Table 1 (TA98, TA100)) of the same compound?
A: The Precipitation was “†”.

Q: What about the Precipitation ([3]; with S9 mix, 5000 μg/plate, Table 2 (TA1537, TA1535, WP2uvrA)) of the same compound?
A: Its Precipitation is “†”.

Q: And the Precipitation ([3]; without S9 mix, 5000 μg/plate, Table 4 (all five strains))?
A: The Precipitation was “†”.

Q: For `NC(=O)C(=Cc1ccc([N+](=O)[O-])o1)c1ccco1` [AF-2, 2-(2-Furyl)-3-(5-nitro-2-furyl)acrylamide], which “Number of revertant colonies” value ([7]; Table 4) is on record?
A: The value was 69.

Q: What about the “Number of revertant colonies” value ([7]; Table 7) of the same compound?
A: Its value is 74.
